Experimental data published in patent US20030212034A1, “Method of treatment of obesity and paralyzed muscle and ergogenic aids” (priority 2002, published 2003).

Tests used:
Format in all cases: in vivo, rat
[1] = tested on: hydroxyacyl-CoA dehydrogenase; experiment: Muscle hydroxyacyl-CoA dehydrogenase activity after chronic AICAR injection; details: chronic AICAR 1 mg/g daily 4 wk
Description: (§1) To determine the effect of chronic injection of AICAR on muscle enyzme activities or expression and on muscle GLUT4, rats were injected subcutaneously (between 8 and 10 a.m.) with AICAR (1 mg/g) or saline vehicle daily for 28±1 days in succession. Beginning with the first injection, controls were pair fed with AICAR-injected rats. Rats were anesthetized by intraperitoneal injection of pentobarbital sodium 22-25 hours after the last AICAR injection and the white and red regions of the quadriceps and the soleus muscles were removed and frozen as described above. Muscles were kept frozen at −70° C. until analyzed. Liver, heart, kidney, and fat pads were weighed.
(§2) For enzyme activity measurements, 10% homogenates were made from the respective muscles in 175 mM KCl, 10 mM GSH, 2 mM EDTA, pH 7.4. This homogenate was frozen and thawed 3 times and mixed thoroughly prior to enzymatic measurements. For succinate dehydrogenase and lactate dehydrogenase, an aliquot of the homogenate was centrifuged at 700×g for 10 min at 4° C. The remainder of the assays were performed on aliquots and dilutions of the mixed whole homogenate. Assays were performed by the following methods: citrate synthase, succinate dehydrogenase, the mitochondrial fraction of malate dehydrogenase, hexokinase, lactate dehydrogenase, carnitine palmitoyl transferase and hydroxyacyl-CoA dehydrogenase. Srere, P. A. Methods in Enzymology 13:3-6, 1969; King, T. E. Methods Enzymol 10:322-335, 1967; Shonk, C. E. & G. E. Boxer, Cancer Res. 24:709-721, 1964; Uyeda, K., & E. Racker, J. Biol Chem 240:4682-4688, 1965; Pesce, A., et al. J. Biol. Chem. 239:1753-1761, 1964; Baldwin, K. M., et al. Am. J. Physiol 222:373-378, 1972; Mole, P. A., et al. J. Clin. Invest. 50:2323-2330, 1971; Kobayashi, A. et al. J. Biochem. 119:775-782, 1996.

lactate dehydrogenase = experiment: Muscle lactate dehydrogenase activity after chronic AICAR injection; details: chronic AICAR 1 mg/g daily 4 wk
Description: as §1, §2

[2] = tested on: AMP-activated protein kinase (AMPK); experiment: AMPK activity in ammonium sulfate precipitates of muscle homogenates after s.c. AICAR injection
Description: (§3) Three days prior to the experiment, jugular cathethers were installed and exteriorized on the back of the neck to allow rapid anesthesia of the rat and rapid blood and tissue collection. Rats were then injected with AICAR (1 mg/g body wt) subcutaneously in sterile 0.9% NaCl or were given 0.9% NaCl (n=6 rats per group). One hour after the subcutaneous injection, rats were anesthetized by intravenous injection of pentobarbital sodium (4.8 mg/100 g body wt). The superficial white and the deep red regions of the quadriceps muscles, and the soleus muscles were quickly removed and frozen with stainless steel clamps at liquid nitrogen temperature.
(§4) Resuspended ammonium sulfate precipitates of tissue homogenates were analyzed for AMPK activity and acetyl-CoA carboxylase activity as described previously. Li, B., et al. J. Biol. Chem. 274:17534-17540, 1999; Winder, W. W., & D. G. Hardie Am. J. Physiol. 270:E299-E304, 1996. […] ACC activity at 0.2 mM citrate provides some indication of the in vivo activity of AMPK, since ACC is a target for phosphorylation of AMPK. ACC activity has previously been reported to decrease in response to phosphorylation by AMPK. Winder, W. W., & D. G. Hardie Am. J. Physiol. 270:E299-E304, 1996. The acute experiment was also repeated on rats treated with AICAR or saline for 4 weeks to see if the responses of AMPK and ACC to AICAR persisted for the entire treatment period. In both experiments ATP and CP were measured on neutralized perchloric acid extracts of muscle.

[3] = tested on: acetyl-CoA carboxylase (ACC); experiment: ACC activity and citrate dependence in denervated and contralateral muscles after acute AICAR injection; details: for ACC activity vs saline, several citrate concentrations / ACC activity at 0.2 mM citrate vs saline-treated contralateral innervated soleus: acute AICAR 1 mg/g; for ACC activity vs saline, several citrate concentrations: FIG. 10; for ACC activity at 0.2 mM citrate vs saline-treated contralateral innervated soleus: FIG. 9
Description: (§5) Rats were anesthetized with ether and the sciatic nerve of the right hindlimb was severed. The left hindlimb was sham operated to serve as a control. Both skin wounds were closed with a metal clips. The rats used for the acute study were also implanted with a jugular catheter which was exteriorized on the back of the neck at the time of denervation for rapid administration of anesthesia.
(§6) Rats were denervated between 8:30 a.m. and 10:30 a.m. and were then given 25 g of food. Rats were handled twice during the day to accustom them to being handled. The rats were given a single subcutaneous injection 24 hours. after surgery of either AICAR (1 mg/g body weight) in sterile 0.9% NaCl or with just 0.9% NaCl, and were subsequently anesthetized intravenously. Soleus and gastrocnemius muscles from both sham and denervated sides were extracted and quick frozen in liquid nitrogen for analysis. AMPK activity and acetyl-Co A carboxylase (ACC) activity were determined as previously described. Winder W W & Hardie D G, Am J. Physiol 270 (Endocrinol Metab 33): E299-E304, 1996. Because this analysis is done on homogenates prepared by ammonium sulfate precipitation, only those effects on AMPK activity modified by phosphorylation are measured. […] Because ACC is a target for phosphorylation by AMPK, and because ACC activity has been reported to decrease in response to phosphorylation by AMPK, ACC activity is measured to give an indication of the in vivo actions of AMPK.
Referring to FIG. 10, Citrate dependence of acetyl-CoA carboxylase (ACC) in denervated and contralateral innervated gastrocnemius muscles from rats treated with AICAR (1 mg AICAR in 0.9% NaCl/1 g body weight) or saline (0.9% NaCl) is illustrated. SE values were determined but are not shown (n=5).Curves were fitted to data by using the Hill equation and Grafit software (Sigma Chemical, St. Louis, Mo.). FIG. 10 graphs the specific activity of ACC in saline-treated and AICAR-treated gastrocnemius muscles at several different citrate concentrations.

[4] = tested on: AMP-activated protein kinase (AMPK); experiment: AMPK activity in denervated and contralateral muscles after acute AICAR injection; details: acute AICAR 1 mg/g
Description: as §5, §6

[5] = tested on: acetyl-CoA carboxylase (ACC); experiment: Acetyl-CoA carboxylase activity at 0.2 mM citrate in muscle after s.c. AICAR injection; details: for ACC: at 0.2 mM citrate
Description: as §3, §4

[6] = red quadriceps, 60 min after AICAR injection, after daily injections for 4 wk
[7] = red quadriceps, 60 min after single AICAR injection 1 mg/g s.c., no chronic treatment
[8] = soleus, 60 min after AICAR injection, after daily injections for 4 wk
[9] = soleus, 60 min after single AICAR injection 1 mg/g s.c., no chronic treatment
[10] = white quadriceps, 60 min after AICAR injection, after daily injections for 4 wk
[11] = white quadriceps, 60 min after single AICAR injection 1 mg/g s.c., no chronic treatment
[12] = AICAR-injected rats, single injection, 0.2 mM citrate

SMILES: NC(=O)c1ncn([C@@H]2O[C@H](CO)[C@@H](O)[C@H]2O)c1N [AICAR, 5-aminoimidazole-4-carboxamide-1-β-D-ribofuranoside]
- HADH activity ([1]; red quadriceps): 9.0 ± 0.4 µmol/g/min
- HADH activity ([1]; soleus): 4.6 ± 0.4 µmol/g/min
- HADH activity ([1]; white quadriceps): 4.6 ± 0.3 µmol/g/min
- LDH activity (lactate dehydrogenase; red quadriceps): 557 ± 26 µmol/g/min
- LDH activity (lactate dehydrogenase; soleus): 162 ± 7 µmol/g/min
- LDH activity (lactate dehydrogenase; white quadriceps): 685 ± 20 µmol/g/min
- AMPK [2, 6]: 200 ± 17 pmol/g/min
- AMPK [2, 7]: 405 ± 62 pmol/g/min
- AMPK [2, 8]: 191 ± 22 pmol/g/min
- AMPK [2, 9]: 447 ± 42 pmol/g/min
- AMPK [2, 10]: 258 ± 32 pmol/g/min
- AMPK [2, 11]: 1,102 ± 80 pmol/g/min
- ACC activity vs saline, several citrate concentrations ([3]; contralateral innervated gastrocnemius): significantly decrease ACC activity
- ACC activity at 0.2 mM citrate vs saline-treated contralateral innervated soleus ([3]; contralateral soleus): significantly (P<0.01) decreased
- ACC citrate activation constant (Ka) ([3]; denervated gastrocnemius, acute AICAR 1 mg/g s.c., saline-treated denervated 3.6±0.3): 13.2±1.1
- ACC maximal velocity (Vmax) as a function of citrate concentration ([3]; denervated gastrocnemius, acute AICAR 1 mg/g s.c., saline-treated denervated 36.7±5): 24.7±1.9
- ACC activity vs saline, several citrate concentrations ([3]; denervated gastrocnemius): significantly decrease ACC activity
- ACC activity at 0.2 mM citrate vs saline-treated contralateral innervated soleus ([3]; denervated soleus): significantly (P<0.01) decreased
- AMPK activity vs saline-treated contralateral innervated muscles ([4]; contralateral innervated gastrocnemius, FIG. 7): significantly (P<0.05) elevated
- AMPK activity vs saline-treated contralateral innervated muscles ([4]; contralateral innervated soleus, FIG. 8): significantly (P<0.05) elevated
- AMPK activity vs saline-treated contralateral innervated muscles ([4]; denervated gastrocnemius, FIG. 7): significantly (P<0.05) elevated
- ACC activity in white quadriceps relative to that seen in red quadriceps [5, 12]: 61%
- ACC activity in white quadriceps relative to that seen in soleus [5, 12]: 44%
- ACC [5, 6]: 0.21 ± 0.01 nmol/g/min
- ACC [5, 7]: 0.19 ± 0.02 nmol/g/min
- ACC [5, 8]: 0.28 ± 0.01 nmol/g/min
- ACC [5, 9]: 0.19 ± 0.02 nmol/g/min
- ACC [5, 10]: 0.12 ± 0.01 nmol/g/min
- ACC [5, 11]: 0.08 ± 0.02 nmol/g/min
